Test results from patent US20240246937A1 (MERCK SHARP & DOHME LLC, priority 2021, published 2024).

What follows are compounds tested against recombinant IL4I1 (Homo sapiens (Human), UniProt Q96RQ9) (assay: IL4I1 Enzymatic Assay (Amplex Red/HRP coupled fluorescence detection of H2O2)). Settings: 240 min; recombinant IL4I1, four-hour pre-incubation with compound.
Type: biochemical
Summary of the method: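 Recombinant human IL4I1 (1 nM final) pre-incubated 4 h with compound at ambient temperature in 50 mM Hepes pH 7.0, 0.005% Tween20. Started with 1 mM each Phe/Tyr/Trp plus Amplex Red/HRP; H2O2-derived resorufin fluorescence read after 120 min; EC50 from ten-point 1:3 titration, four-parameter fit.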

Chain of recombinant IL4I1 (Q96RQ9 22-567): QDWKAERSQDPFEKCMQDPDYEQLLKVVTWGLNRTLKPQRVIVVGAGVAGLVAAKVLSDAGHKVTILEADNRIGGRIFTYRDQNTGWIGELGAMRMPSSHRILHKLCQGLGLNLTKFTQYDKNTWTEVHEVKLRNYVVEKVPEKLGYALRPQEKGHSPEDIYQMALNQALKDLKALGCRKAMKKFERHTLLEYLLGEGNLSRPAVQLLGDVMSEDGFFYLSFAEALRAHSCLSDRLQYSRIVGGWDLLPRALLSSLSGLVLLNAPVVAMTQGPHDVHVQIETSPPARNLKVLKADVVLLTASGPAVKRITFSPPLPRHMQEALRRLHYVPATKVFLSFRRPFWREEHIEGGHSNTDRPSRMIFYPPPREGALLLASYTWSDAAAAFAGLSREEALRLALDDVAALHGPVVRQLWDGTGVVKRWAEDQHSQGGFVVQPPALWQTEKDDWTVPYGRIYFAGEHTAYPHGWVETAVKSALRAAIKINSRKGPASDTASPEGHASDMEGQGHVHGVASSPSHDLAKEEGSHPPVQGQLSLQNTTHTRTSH

Structure (SMILES) | EC50
O=C1C(=O)N(C2CC(c3ccccc3)C2)CCN1Cc1ccc(-c2ccccc2)nn1 (stereo not shown) [Example 7, 1-(3-phenylcyclobutyl)-4-((6-phenylpyridazin-3-yl)methyl)piperazine-2,3-dione] | 9 nM
O=C1C(=O)N(C23CC(C2)C3)CCN1Cc1ccc(-c2ccccc2)cn1 [Example 114, 1-(bicyclo[1.1.1]pentan-1-yl)-4-((5-phenylpyridin-2-yl)methyl)piperazine-2,3-dione] | 7 nM
O=c1c(=O)n(C2CCC2)ccn1Cc1ccc(-c2cccc(F)c2)nn1 [Example 63, 1-cyclobutyl-4-((6-(3-fluorophenyl)pyridazin-3-yl)methyl)-1,4-dihydropyrazine-2,3-dione] | 3 nM
O=C1C(=O)N(C2CCC2)CCN1Cc1cc(-c2ccccc2)no1 [Example 148, 1-cyclobutyl-4-((3-phenylisoxazol-5-yl)methyl)piperazine-2,3-dione] | 2 nM
O=c1c(=O)n([C@H]2C[C@H]3C[C@H]3C2)ccn1Cc1cnc(-c2ccccc2)c(F)c1 [Example 128, 1-((cis)-bicyclo[3.1.0]hexan-3-yl)-4-((5-fluoro-6-phenylpyridin-3-yl)methyl)-1,4-dihydropyrazine-2,3-dione] | 2 nM
O=c1c(=O)n(C23CC(C2)C3)ccn1Cc1cn(-c2ccccn2)nn1 [Example 427, 1-(bicyclo[1.1.1]pentan-1-yl)-4-((1-(pyridin-2-yl)-1H-1,2,3-triazol-4-yl)methyl)-1,4-dihydropyrazine-2,3-dione] | 19 nM
C[C@H](c1nnc(-c2ccccc2)s1)N1CCN(C2CCC2)C(=O)C1=O [Example 355, (R)-1-cyclobutyl-4-(1-(5-phenyl-1,3,4-thiadiazol-2-yl)ethyl)piperazine-2,3-dione] | 22 nM
N#CC1(n2ccn(Cc3cn(-c4cccnc4)nn3)c(=O)c2=O)CC1 [Example 431, 1-(2,3-dioxo-4-((1-(pyridin-3-yl)-1H-1,2,3-triazol-4-yl)methyl)-3,4-dihydropyrazin-1(2H)-yl)cyclopropane-1-carbonitrile] | 130 nM
O=c1c(=O)n(C23CC(F)(C2)C3)ccn1Cc1ccc(-n2ccnn2)nn1 [Example 248, 1-((6-(1H-1,2,3-triazol-1-yl)pyridazin-3-yl)methyl)-4-(3-fluorobicyclo[1.1.1]pentan-1-yl)-1,4-dihydropyrazine-2,3-dione] | 38 nM
O=C1C(=O)N(C2CCC2)CCN1Cc1ncc(-c2ccccn2)s1 [Example 376, 1-cyclobutyl-4-((5-(pyridin-2-yl)thiazol-2-yl)methyl)piperazine-2,3-dione] | 14 nM
O=C1C(=O)N(C2CCC2)CCN1Cc1cnc(-c2ccccc2F)cn1 [Example 73, 1-cyclobutyl-4-((5-(2-fluorophenyl)pyrazin-2-yl)methyl)piperazine-2,3-dione] | 9 nM
CC1(N2CCN(Cc3cc(-c4cccc(F)c4)no3)C(=O)C2=O)CCC1 [Example 185, 1-((3-(3-fluorophenyl)isoxazol-5-yl)methyl)-4-(1-methylcyclobutyl)piperazine-2,3-dione] | 8 nM
O=C1C(=O)N(C23CC(F)(C2)C3)CCN1Cc1ccc(-c2ccccc2F)nn1 [Example 228, 1-(3-fluorobicyclo[1.1.1]pentan-1-yl)-4-((6-(2-fluorophenyl)pyridazin-3-yl)methyl)piperazine-2,3-dione] | 23 nM
O=C1C(=O)N([C@H]2C[C@@H](c3ccccc3)C2)CCN1Cc1ccc(-c2ccccc2)nn1 [Example 96B, cis-1-(3-phenylcyclobutyl)-4-((6-phenylpyridazin-3-yl)methyl)piperazine-2,3-dione] | 8 nM
CC1(n2ccn(Cc3ccc(-c4cncs4)nn3)c(=O)c2=O)CC1 [Example 94, 1-(1-methylcyclopropyl)-4-((6-(thiazol-5-yl)pyridazin-3-yl)methyl)-1,4-dihydropyrazine-2,3-dione] | 35 nM
O=C1C(=O)N(C23CC(C2)C3)CCN1Cc1nnc(-c2ccccc2)s1 [Example 121, 1-(bicyclo[1.1.1]pentan-1-yl)-4-((5-phenyl-1,3,4-thiadiazol-2-yl)methyl)piperazine-2,3-dione] | 7 nM
